Laboratory results reported in US20140343249A1, “CELL KILLING FUSION PEPTIDE EXHIBITING TUMOR CELL-SPECIFIC NECROSIS INDUCTION AND TUMOR REGRESSION” (INDUSTRY-ACADEMIC COOPERATION FOUNDATION, CHOSUN UNIVERSITY, priority 2011, published 2014).
Where no end group is shown, it is not given here.

Key:
CT-26 tumor = experiment: In vivo screening of tumor regression activity, CT-26 tumor in BALB/C mice; parameters: key to In vivo Screening: NR: no regression (no decrease on the tumor volume); ND: not determined; conditions: for toxicity to the experimental animals: 100 ul (1 mM) intravenously 2-3 times (1 injection/day); for In vivo Screening: CT-26 tumor-bearing BALB/C mice, intravenous injection
Description: In order to test tumor regression activity of the cell-killing CKP fusion peptides manufactured in Example 1, colon cell line, CT-26 (1.5×10^5 cells) was subcutaneously injected into dorsal skin of BALB/C mice of 6 weeks old to form tumor. After about 10 days, when the formed tumor volume reach to about 70±10 mm^3, the cancer cell specific CKP fusion peptide 100 ul (1 mM) was intravenously injected continuously 2-3 times (1 injection/day) into 3 mice, respectively, and after 10-13 days, change on the tumor tissue volume (length×wide^2×0.5) was observed.

[1] = Movement activity of mouse after I.V. injection; format: in vivo; conditions: 10-30 min after I.V. injection of 75 ul (1 mM) into BalB/C mouse (about 20 g)
[2] = test system: HeLa cells, cervical cancer cell line; experiment: Cell-killing activity of CKP peptide variants in HeLa, crystal violet staining; format: cell-based, human; conditions: 0-40 μM, 24 hours, peptides linked to PTD RRRRRRRRG
Excerpt: In order to examine whether variants, in which some amino acids of the CKP peptide (SEQ ID NO: 21; KLLNLISKLF) of the present invention are substituted, also have cell-killing activity or not, CKP2 (1 amino acid was substituted) (SEQ ID NO: 22; KALNLISKLF), CKP3 (2 amino acids were substituted) (SEQ ID NO: 23; KLAALISKLF), CKP4 (2 amino acids were substituted) (SEQ ID NO: 24; KLLNLIAALF) and CKP5 (3 amino acids were substituted) (SEQ ID NO: 25; KALNLIAALF), which are CKP peptide variants in which 1-3 of amino acid residues linked to the known protein transduction domain (PTD) having RRRRRRRRG (RQ) sequence are substituted, were synthesized by the procedure described in Example 1. Further, in order to investigate influence of substitution at the leucine's repeat in the CKP, the CKP peptide variants, CKP6 (2nd and 3rd L were substituted to A) (SEQ ID NO: 26; KAANLISKLF), CKP7 (5th L was substituted to A) (SEQ ID NO: 27; KLLNAISKLF) and CKP8 (9th L was substituted to A) (SEQ ID NO: 28; KLLNLISKAF) linked to the RRRRRRRRG (RQ) sequence of the protein transduction domain (PTD) were synthesized by the procedure described in Example 1. In order to test cell-killing activity of the variants, a cervical cancer cell line, HeLa cells were cultured, and the culture medium was replaced with culture medium containing 0, 1, 5, 10, 15, 20, 30 and 40 μM CKP peptide, respectively, followed by further culturing for 24 hours. Living cells attached to the bottom were stained with 100 μl 0.5% crystal violet solution for 10 min, and washed off with distilled water or tap water to remove dead cells floating on the culture medium and also to destain the crystal violet solution. Then, the cells were observed by photography after placing the culture vessel under a fluorescent lamp box as depicted in FIG. 14. The living cells attached to the bottom and stained with the crystal violet were appeared blue color. […] Accordingly, it was identified that the Leucine sequence is a region playing a critical role in cell-killing activity of the CKP.

splenocytes = experiment: Normal cell necrosis activity in splenocytes by XTT method; format: cell-based, mouse; conditions: splenocytes from BALB/c mice, 5, 10 and 20 μM, after 15 min
Excerpt: In order to test cell necrosis inducing activity of the cell-killing CKP fusion peptide (CTD7:CKP) selected in Example 3 in normal cells, primary peritoneal macrophages and splenocytes were isolated from BALB/c mice.
In order to obtain splenocytes, complete RPMI media was put into a cell culture dish, male mouse spleen was isolated, and tissue thereof was crushed and centrifuged. Pellet was washed once with media and centrifuged again, and ACK lysis buffer (0.15 M NH4Cl, […], 0.01 M Na2EDTA, pH 7.2-7.4) was added thereto and centrifuged again. Then the pellet was cultured in 5% FBS-containing complete RPMI media for primary culture of the splenocytes, and the media was replaced with culture medium containing 5, 10 and 20 μM of the cell-killing CKP fusion peptide (CTD7:CKP), and after 15 min, cell necrosis inducing activity was confirmed by XTT method.

[3] = Hepatocyte toxicity: ALT and AST released to blood; format: in vivo, mouse; conditions: blood of treated groups by the time versus untreated control group
Description: In order to confirm toxicity of the cell-killing CKP fusion peptide (CTD7:CKP), the amounts of alanine amino transferase (ALT) and aspartate amino transferase (AST) released to blood from hepatocytes of the damaged liver were measured and whether the hepatocytes was damaged or not was confirmed, so as to judge toxicity by the cell-killing CKP fusion peptide.

liver tissue = experiment: Toxicity in normal tissue (liver), histology; format: in vivo, mouse; conditions: intravenous injection, liver sections by the time
Description: In order to evaluate the degree of toxicity to the liver tissue, liver tissue section was prepared as described in Example 8, and pathologically observed in a normal mice group not treated with the peptide, a tumor-formed group intravenously injected with 0.85% normal saline and groups intravenously injected with the cell-killing CKP fusion peptide by the time.

cells = conditions: in 10 minutes; cited from earlier work

## KLLNLISKLFCGRDKRLYDC (Cell killing fusion peptide) [CTD14:CKP]
CT-26 tumor
  toxicity to the experimental animals: dead
  In vivo Screening: Dead
[1]
  Movement Activities: Dead

## KLLNLISKAF [CKP8]
[2]
  cell-killing activity compared with the CKP peptide: much decreased cell-killing activity

## CGKRKGGKLLNLISKLF [CTD2:CKP, CGKRKGGKLLNLISKLF]
[1]
  Movement Activities: Normal

## RLLRLLRGGKLLNLISKLF [CTD5:CKP, RLLRLLRGGKLLNLISKLF]
CT-26 tumor
  toxicity to the experimental animals: toxicity removing the injected tail by necrosis
[1]
  Movement Activities: Slow

## KLLNLISKLFGGLGDRGDR (Cell killing fusion peptide) [CTD10:CKP]
CT-26 tumor
  In vivo Screening: NR

## WDLAWMFRLPVGKLLNLISKLF [CTD11:CKP]
[1]
  Movement Activities: Normal

## KLLNLISKLFCGRDKGPDC (Cell killing fusion peptide) [CTD13:CKP]
[1]
  Movement Activities: Normal

## KLLNLISKLFGGCRGDK [CTD19:CKP, KLLNLISKLFGGCRGDK]
[1]
  Movement Activities: Normal

## KLLNLIAALF [CKP4]
[2]
  cell-killing activity compared with the CKP peptide: better cell-killing activity

## KAANLISKLF [CKP6]
[2]
  cell-killing activity compared with the CKP peptide: much decreased cell-killing activity

## KLLNLISKLFGGRLLRLLR [CTD6:CKP, KLLNLISKLFGGRLLRLLR]
CT-26 tumor
  toxicity to the experimental animals: toxicity removing the injected tail by necrosis
[1]
  Movement Activities: Normal

## KLLNLISKLFCRGDKRLYDC (Cell killing fusion peptide) [CTD17:CKP]
CT-26 tumor
  toxicity to the experimental animals: toxicity removing the injected tail by necrosis
  In vivo Screening: Toxic
[1]
  Movement Activities: Slow

## RPARPARGGKLLNLISKLF [CTD7:CKP, RPARPARGGKLLNLISKLF]
splenocytes
  cell-killing activity in normal cells: did not show significant cell-killing activity
CT-26 tumor
  toxicity to the experimental animals: no toxicity
[1]
  Movement Activities: Normal
[3]
  ALT released to blood (liver damage index): no difference
  AST released to blood (liver damage index): no difference
Liver tissue
  damage of liver tissue (histology): any significant damage was not observed

## KLLNLISKLFCRGDKGPDC (Cell killing fusion peptide) [CTD16:CKP]
[1]
  Movement Activities: Slow

## CRGDKGPDCKLLNLISKLF (Cell killing fusion peptide) [CTD15:CKP]
[1]
  Movement Activities: Normal

## CGRDKGPDCKLLNLISKLF (Cell killing fusion peptide) [CTD12:CKP]
[1]
  Movement Activities: Normal

## KLLNLISKLF (Cell Killing Peptide) [MTD]
cells
  cells killed (cell necrosis effect): ≥ 80%

## WIFPWIQLKLLNLISKLF [CTD4:CKP, WIFPWIQLKLLNLISKLF]
CT-26 tumor
  toxicity to the experimental animals: toxicity removing the injected tail by necrosis
[1]
  Movement Activities: Slow

## KLLNAISKLF [CKP7]
[2]
  cell-killing activity compared with the CKP peptide: much decreased cell-killing activity

## KLLNLISKLFGGRPARPAR [CTD8:CKP, KLLNLISKLFGGRPARPAR]
[1]
  Movement Activities: Slow

## CRGDKGGKLLNLISKLF [CTD18:CKP, CRGDKGGKLLNLISKLF]
[1]
  Movement Activities: Slow

## KALNLIAALF [CKP5]
[2]
  cell-killing activity compared with the CKP peptide: slightly decreased cell-killing activity

## KALNLISKLF [CKP2]
[2]
  cell-killing activity compared with the CKP peptide: slightly decreased cell-killing activity

## KLLNLISKLFGGCGKRK [CTD3:CKP, KLLNLISKLFGGCGKRK]
[1]
  Movement Activities: Normal

## CNGRCGGKLLNLISKLF (Cell killing fusion peptide) [CTD1:CKP]
CT-26 tumor
  In vivo Screening: NR
[1]
  Movement Activities: Slow

## KLAALISKLF [CKP3]
[2]
  cell-killing activity compared with the CKP peptide: slightly decreased cell-killing activity
